Source: patent publication US11459336B2, “Pyrazine carbamates and their use as GluN2B receptor modulators” (JANSSEN PHARMACEUTICA NV, priority 2019, dated 2022)

What was measured:
[1] = molecular target: T1, human GluN1/GluN2B NMDA receptors (Homo sapiens, UniProt Q13224); test: Calcium flux (FLIPR) assay on cloned human GluN1/GluN2B ion channels expressed in mammalian cells, standard assay; format: cell-based; conditions: glutamate ~EC40, 10 μM glycine, stable cell line with Tet-On induced expression
T1 construct: expressed in transfected cells
Experimental: (§1) NMDA receptors are ion channels that are highly permeable to Ca^2+ ions, rendering it possible to monitor NMDA receptor function using cell-based calcium flux assay. In this assay, co-agonists glutamate and glycine are added to cells heterologously expressing human GluN1/GluN2B NMDA receptors to initiate cellular Ca^2+ influx. The time course of the changes in intracellular calcium is measured using a fluorescent dye and a FLIPR (Fluorometric Imaging Plate Reader) device.
(§2) Twenty four hours before measurements, the expression of the NMDA receptors in the stable cell line is induced with Tet-On inducible system in the presence of a non-selective NMDA receptor blocker. On the day of the experiment, cell culture media is carefully washed and the cells are loaded with Calcium 5 Dye Kit (Molecular Devices) in dye loading buffer containing 137 mM NaCl, 4 mM KCl, 2 mM CaCl2, 0.5 mM MgCl2 (standard assay) or 1.5 mM MgCl2 (HTS assay), 10 mM HEPES and 5 mM D-glucose; pH 7.4. After 1 h incubation at the room temperature, the dye is washed away with the assay buffer (137 mM NaCl (standard assay) or 150 mM (HTS assay), 4 mM KCl (standard assay) or 3 mM (HTS assay), 2 mM CaCl2, 0.01 mM EDTA, 10 mM HEPES and 5 mM D-glucose; pH 7.4) In the FLIPR TETRA reader, various concentrations of the test compounds are added to the cells for 5 min while fluorescence is monitored to detect potential agonist activity. Next, co-agonists, glutamate and glycine are added for another 5 minutes. The concentration of glutamate corresponding to ˜EC40 (standard assay) or EC40 (HTS assay) is used to maximize the assay's signal window and ability to detect NMDA receptor antagonists and negative allosteric modulators. A saturating concentration (10 μM) of glycine is also present in the assay. A non-selective NMDA receptor antagonist, (+)MK-801 is used as a positive control for antagonist activity. The fluorescent signal in the presence of test compounds is quantified and normalized to the signal defined by the appropriate control wells.

[2] = Liver microsomal stability assay (extraction ratio); format: in vitro ADME; conditions: test compound 1 μM; 0.5 mg/mL liver microsomes, 1 mM NADPH, 37° C.; species not given (method: mouse, rat, and human)
Experimental: Microsomal stability studies (see, Chrovian et al, “1H-Pyrrolo[3,2-b]pyridine GluN2B-Selective Negative Allosteric Modulators”. ACS Med Chem Lett. 2019 Jan. 10; 10(3):261-266) were conducted on a Biomek® FX Robotic Liquid Handling Workstation (Beckman Coulter, Brea, Calif.), which consists of a 96-channel pipette head, a 12-position workstation deck, and a plate incubator. Test compounds (1 μM) were spiked in a reaction mix consisting of 100 mM potassium phosphate buffer (pH 7.4), 3 mM MgCl2, and 0.5 mg/mL liver microsomes from mouse, rat, and human (BD Gentest). The reaction was brought to 37° C. and initiated by adding NADPH to a final concentration of 1 mM. After mixing on the platedeck, 50 μL aliquots were excised from the reaction plate at 0, 5, 10, 20, 40, and 60 min and quenched with four volumes of acetonitrile spiked with […] of the internal standard phenytoin. Quenched plates were centrifuged at 5700 rpm for 10 min at 4° C., and supernatant was diluted 1:3 in water before LC/MS/MS analysis. The compound half-lives were derived from plots of the ln of percent remaining compound over time to determine the intrinsic clearance. The predicted hepatic clearance was derived from the intrinsic clearance value using equations from the well-stirred model (Current Drug Metabolism, 2008, 9, 940-951), where no correction was made plasma protein binding and the blood to plasma concentration ratio was assumed to be one. The extraction ratio (ER) was calculated by dividing the predicted hepatic clearance by species blood flow (Q), where Q is 90, 55, and 21.7 mL/min/kg for mouse, rat and human, respectively.

[3] = molecular target: T2, human GluN1/GluN2B NMDA receptors (Homo sapiens, UniProt Q05586+Q13224); test: Calcium flux (FLIPR) assay on cloned human GluN1/GluN2B ion channels expressed in mammalian cells, standard assay; format: cell-based; conditions: glutamate ~EC40, 10 μM glycine, stable cell line with Tet-On induced expression
T2 construct: expressed in transfected cells
Experimental: as §1, §2

T1 sequence (Q13224 27-1484, other chains not shown): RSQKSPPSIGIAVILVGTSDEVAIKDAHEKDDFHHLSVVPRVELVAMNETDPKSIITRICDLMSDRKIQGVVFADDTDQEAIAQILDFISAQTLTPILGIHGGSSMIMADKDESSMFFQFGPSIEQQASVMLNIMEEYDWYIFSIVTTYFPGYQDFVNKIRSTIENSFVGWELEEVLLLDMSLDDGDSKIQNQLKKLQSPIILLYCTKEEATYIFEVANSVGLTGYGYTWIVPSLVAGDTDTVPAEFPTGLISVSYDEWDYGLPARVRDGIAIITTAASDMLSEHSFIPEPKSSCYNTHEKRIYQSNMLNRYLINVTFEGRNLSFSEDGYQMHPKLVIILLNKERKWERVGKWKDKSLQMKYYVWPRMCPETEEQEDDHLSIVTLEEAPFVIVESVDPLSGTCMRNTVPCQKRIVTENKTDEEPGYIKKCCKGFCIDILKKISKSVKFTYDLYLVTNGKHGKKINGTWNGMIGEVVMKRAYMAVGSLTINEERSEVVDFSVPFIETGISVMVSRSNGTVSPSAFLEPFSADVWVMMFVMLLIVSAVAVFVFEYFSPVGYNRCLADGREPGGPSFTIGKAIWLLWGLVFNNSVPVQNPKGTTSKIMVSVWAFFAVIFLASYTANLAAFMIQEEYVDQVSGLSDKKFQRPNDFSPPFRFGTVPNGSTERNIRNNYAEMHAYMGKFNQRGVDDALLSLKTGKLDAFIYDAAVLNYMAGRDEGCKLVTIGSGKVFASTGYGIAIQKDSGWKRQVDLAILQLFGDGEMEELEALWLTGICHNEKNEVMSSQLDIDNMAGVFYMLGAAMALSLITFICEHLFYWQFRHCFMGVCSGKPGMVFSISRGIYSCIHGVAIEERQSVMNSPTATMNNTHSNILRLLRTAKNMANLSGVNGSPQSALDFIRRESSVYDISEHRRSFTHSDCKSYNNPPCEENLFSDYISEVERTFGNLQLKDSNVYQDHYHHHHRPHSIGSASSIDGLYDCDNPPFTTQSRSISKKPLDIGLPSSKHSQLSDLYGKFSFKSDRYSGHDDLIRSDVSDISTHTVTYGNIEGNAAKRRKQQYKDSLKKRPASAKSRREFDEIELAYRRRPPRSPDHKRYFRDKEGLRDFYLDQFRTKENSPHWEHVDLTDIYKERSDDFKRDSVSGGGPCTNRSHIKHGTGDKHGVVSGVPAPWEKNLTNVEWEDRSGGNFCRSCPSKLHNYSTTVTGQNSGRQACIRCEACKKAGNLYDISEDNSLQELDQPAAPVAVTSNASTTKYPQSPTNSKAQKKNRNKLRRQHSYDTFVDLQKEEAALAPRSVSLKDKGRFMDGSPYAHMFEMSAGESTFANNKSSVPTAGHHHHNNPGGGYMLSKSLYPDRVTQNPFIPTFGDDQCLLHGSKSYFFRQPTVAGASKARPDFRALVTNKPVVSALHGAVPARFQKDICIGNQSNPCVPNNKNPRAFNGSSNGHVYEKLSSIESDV
T2 sequence (Q13224 27-1484, other chains not shown): as above

IC50 [1]	Extraction Ratio @ 1 μM [2]	IC50 [3]	SMILES
–	0.18	> 3000 nM	CNC(=O)C1CN(Cc2cncc(-c3ccc(F)c(C(F)F)c3)n2)C(=O)O1 (racemic) [Example 59, (R/S)-3-[[6-[3-(Difluoromethyl)-4-fluoro-phenyl]pyrazin-2-yl]methyl]-N-methyl-2-oxo-oxazolidine-5-carboxamide]
65 nM	0.06	–	Cc1ncc(-c2ccc(F)c(C(F)F)c2)nc1CN1CCCOC1=O [Example 15, 3-[[6-[3-(Difluoromethyl)-4-fluoro-phenyl]-3-methyl-pyrazin-2-yl]methyl]-1,3-oxazinan-2-one]

The remaining lines, values behind:

SMILES	IC50 [1]	Extraction Ratio @ 1 μM [2]	IC50 [3]
Cc1ncc(-c2ccc(F)c(C(F)F)c2)nc1CN1C(=O)OC[C@H]1C [Example 11, (4R)-3-[[6-[3-(Difluoromethyl)-4-fluoro-phenyl]-3-methyl-pyrazin-2-yl]methyl]-4-methyl-oxazolidin-2-one]	192 nM	0.18	–
C[C@H]1COC(=O)N1Cc1cncc(-c2ccc(F)c(C(F)F)c2)n1 [Example 8, (4S)-3-[[6-[3-(Difluoromethyl)-4-fluoro-phenyl]pyrazin-2-yl]methyl]-4-methyl-oxazolidin-2-one]	872 nM	0.06	–
O=C1OC2(CC2)CN1Cc1cncc(-c2ccc(F)c(C(F)F)c2)n1 [Example 3, 5-[[6-[3-(Difluoromethyl)-4-fluoro-phenyl]pyrazin-2-yl]methyl]-7-oxa-5-azaspiro[2.4]heptan-6-one]	13 nM	0.05	–
